The record followed here is PMC2096529 (Purinergic Signalling, 2005).

SMILES strings stand for the structures.

Among the targets are human P2Y2 receptor (Homo sapiens, UniProt P41231); human P2Y6 receptor (Homo sapiens, UniProt Q15077); human P2Y4 receptor (Homo sapiens, UniProt P51582); human P2Y1 receptor (Homo sapiens, UniProt P47900).
Experiment in all cases: Fluo-3 calcium mobilization, FLIPR, […]1 cells
Holding throughout (type): cell-based
In general terms: Calcium assays in cells follow changes in intracellular calcium, usually with a dye or a luminescent sensor.

Chain of human P2Y4 receptor (P51582 whole entry): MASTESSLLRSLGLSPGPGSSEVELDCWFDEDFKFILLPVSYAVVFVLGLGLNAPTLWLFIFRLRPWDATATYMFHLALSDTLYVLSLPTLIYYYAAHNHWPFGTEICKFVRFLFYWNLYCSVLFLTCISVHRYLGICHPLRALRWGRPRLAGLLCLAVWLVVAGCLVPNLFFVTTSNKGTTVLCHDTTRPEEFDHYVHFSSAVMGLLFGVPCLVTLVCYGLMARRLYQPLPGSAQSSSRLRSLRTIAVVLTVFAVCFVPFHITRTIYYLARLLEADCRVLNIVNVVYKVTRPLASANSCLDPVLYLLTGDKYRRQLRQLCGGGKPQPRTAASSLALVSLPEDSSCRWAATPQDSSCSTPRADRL
Chain of human P2Y2 receptor (P41231 whole entry): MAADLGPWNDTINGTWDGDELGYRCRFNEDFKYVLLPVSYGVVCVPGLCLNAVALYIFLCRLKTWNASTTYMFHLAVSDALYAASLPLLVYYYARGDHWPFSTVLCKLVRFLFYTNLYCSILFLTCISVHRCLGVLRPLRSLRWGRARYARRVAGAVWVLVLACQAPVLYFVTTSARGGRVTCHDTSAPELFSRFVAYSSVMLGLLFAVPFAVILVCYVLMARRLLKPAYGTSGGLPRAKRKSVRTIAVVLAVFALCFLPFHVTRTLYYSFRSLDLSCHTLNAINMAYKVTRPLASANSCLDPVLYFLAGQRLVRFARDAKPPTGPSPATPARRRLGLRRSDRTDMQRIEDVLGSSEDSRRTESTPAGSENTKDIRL
Chain of human P2Y6 receptor (Q15077 whole entry): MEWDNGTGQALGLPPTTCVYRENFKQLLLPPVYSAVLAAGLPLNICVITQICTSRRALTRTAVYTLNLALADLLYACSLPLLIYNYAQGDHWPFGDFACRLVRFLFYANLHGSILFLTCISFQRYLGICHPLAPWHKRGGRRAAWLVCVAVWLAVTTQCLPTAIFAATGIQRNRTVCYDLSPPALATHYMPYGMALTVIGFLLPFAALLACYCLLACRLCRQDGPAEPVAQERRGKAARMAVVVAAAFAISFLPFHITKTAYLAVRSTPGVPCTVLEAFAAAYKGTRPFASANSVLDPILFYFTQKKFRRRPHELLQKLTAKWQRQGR
Chain of human P2Y1 receptor (P47900 whole entry): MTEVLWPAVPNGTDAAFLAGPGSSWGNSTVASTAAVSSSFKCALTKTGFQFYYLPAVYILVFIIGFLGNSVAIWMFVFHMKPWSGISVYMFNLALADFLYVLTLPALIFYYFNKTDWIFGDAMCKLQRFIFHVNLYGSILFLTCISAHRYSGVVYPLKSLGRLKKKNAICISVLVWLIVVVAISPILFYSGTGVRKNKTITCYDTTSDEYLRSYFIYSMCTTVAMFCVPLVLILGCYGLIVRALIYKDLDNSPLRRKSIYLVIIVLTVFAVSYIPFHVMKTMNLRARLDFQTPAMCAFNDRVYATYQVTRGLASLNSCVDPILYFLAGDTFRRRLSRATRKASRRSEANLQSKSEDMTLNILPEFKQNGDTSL

The EC50 is the concentration needed to bring the measured effect to its halfway point. Regarding `Nc1ncnc2c1ncn2[C@@H]1O[C@H](COP(=O)(O)OP(=O)(O)OP(=O)(O)O)[C@@H](O)[C@H]1O` [ATP], the EC50 at human P2Y2 receptor stood at 15 nM.
Turning to `O=c1ccn([C@@H]2O[C@H](COP(=O)(O)OP(=O)(O)OC[C@H]3O[C@@H](n4ccc(=O)[nH]c4=O)[C@H](O)[C@@H]3O)[C@@H](O)[C@H]2O)c(=O)[nH]1` [compound 4, UP2U], at human P2Y6 receptor, the EC50 was determined as 33000 nM.
On to `O=c1ccn([C@@H]2O[C@H](COP(=O)(O)OP(=O)(O)OP(=O)(O)O)[C@@H](O)[C@H]2O)c(=O)[nH]1` [compound 7, UTP], for which the EC50 turned out to be 15 nM at human P2Y2 receptor, 70 nM on human P2Y4 receptor and 1470 nM on human P2Y6 receptor.
On to `Nc1ncnc2c1ncn2[C@@H]1O[C@H](CO[P@](=O)(O)O[P@](=O)(O)OC[C@H]2O[C@@H](n3cnc4c(N)ncnc43)[C@H](O)[C@@H]2O)[C@@H](O)[C@H]1O` [compound 13, AP2A], for which the EC50 at human P2Y1 receptor amounted to 4250 nM.
For the compound `Nc1ncnc2c1ncn2[C@@H]1O[C@H](COP(=O)(O)OP(=O)(O)OC[C@H]2O[C@@H](n3ccc(=O)[nH]c3=O)[C@H](O)[C@@H]2O)[C@@H](O)[C@H]1O` [compound 14, AP2U], the EC50 at human P2Y2 receptor is 23400 nM; at human P2Y1 receptor, 2850 nM.
`Nc1ccn([C@@H]2O[C@H](COP(=O)(O)OP(=O)(O)OC[C@H]3O[C@@H](n4cnc5c(N)ncnc54)[C@H](O)[C@@H]3O)[C@@H](O)[C@H]2O)c(=O)n1` [compound 15, AP2C]: the EC50 turned out to be 6900 nM at human P2Y2 receptor, 18800 nM on human P2Y6 receptor and 2110 nM at human P2Y1 receptor.
Consider `Nc1nc2c(ncn2[C@H]2C[C@H](O)[C@@H](COP(=O)(O)OP(=O)(O)OC[C@H]3O[C@@H](n4cnc5c(N)ncnc54)[C@H](O)[C@@H]3O)O2)c(=O)[nH]1` [compound 17, AP2dG], for which the EC50 on human P2Y6 receptor was > 10000 nM; on human P2Y1 receptor, 24600 nM.
With `Nc1nc2c(ncn2[C@@H]2O[C@H](COP(=O)(O)OP(=O)(O)OC[C@H]3O[C@@H](n4ccc(=O)[nH]c4=O)[C@H](O)[C@@H]3O)[C@@H](O)[C@H]2O)c(=O)[nH]1` [compound 18, UP2G], the EC50 on human P2Y2 receptor came out at 2100 nM; at human P2Y4 receptor it was 4640 nM; at human P2Y6 receptor, 7540 nM.
For the compound `Nc1nc2c(ncn2[C@H]2C[C@H](O)[C@@H](COP(=O)(O)OP(=O)(O)OC[C@H]3O[C@@H](n4ccc(=O)[nH]c4=O)[C@H](O)[C@@H]3O)O2)c(=O)[nH]1` [compound 20, UP2dG], the EC50 was 29000 nM on human P2Y2 receptor, > 10000 nM at human P2Y6 receptor and > 10000 nM on human P2Y1 receptor.
Consider `O=c1[nH]cnc2c1ncn2[C@@H]1O[C@H](COP(=O)(O)OP(=O)(O)OC[C@H]2O[C@@H](n3cnc4c(=O)[nH]cnc43)[C@H](O)[C@@H]2O)[C@@H](O)[C@H]1O` [compound 22, IP2I], for which the EC50 on human P2Y2 receptor was 4800 nM; at human P2Y4 receptor it was 5060 nM; at human P2Y6 receptor it was > 10000 nM.
For the compound `Nc1ncnc2c1ncn2[C@@H]1O[C@H](COP(=O)(O)OP(=O)(O)OP(=O)(O)OC[C@H]2O[C@@H](n3cnc4c(N)ncnc43)[C@H](O)[C@@H]2O)[C@@H](O)[C@H]1O` [compound 25, AP3A], the EC50 at human P2Y2 receptor is 28500 nM; on human P2Y1 receptor it was 11 nM.
In the case of `Nc1ncnc2c1ncn2[C@@H]1O[C@H](COP(=O)(O)OP(=O)(O)OP(=O)(O)OC[C@H]2O[C@@H](n3ccc(=O)[nH]c3=O)[C@H](O)[C@@H]2O)[C@@H](O)[C@H]1O` [compound 26, AP3U], the EC50 on human P2Y2 receptor amounted to 2000 nM; at human P2Y6 receptor, 170 nM; on human P2Y1 receptor, 39 nM.
With `Nc1ccn([C@@H]2O[C@H](COP(=O)(O)OP(=O)(O)OP(=O)(O)OC[C@H]3O[C@@H](n4cnc5c(N)ncnc54)[C@H](O)[C@@H]3O)[C@@H](O)[C@H]2O)c(=O)n1` [compound 27, AP3C], the EC50 at human P2Y2 receptor is 6000 nM; on human P2Y6 receptor, > 10000 nM; on human P2Y1 receptor, 85 nM.
`Nc1ccn([C@@H]2O[C@H](COP(=O)(O)OP(=O)(O)OP(=O)(O)OC[C@H]3O[C@@H](n4ccc(=O)[nH]c4=O)[C@H](O)[C@@H]3O)[C@@H](O)[C@H]2O)c(=O)n1` [compound 31, UP3C]: the EC50 is 2000 nM at human P2Y2 receptor, 16700 nM on human P2Y4 receptor and 520 nM at human P2Y6 receptor.
In the case of `Nc1nc2c(ncn2[C@@H]2O[C@H](COP(=O)(O)OP(=O)(O)OP(=O)(O)OC[C@H]3O[C@@H](n4ccc(=O)[nH]c4=O)[C@H](O)[C@@H]3O)[C@@H](O)[C@H]2O)c(=O)[nH]1` [compound 32, UP3G], on human P2Y6 receptor, the EC50 amounted to 380 nM.
As to `O=c1ccn([C@@H]2O[C@H](COP(=O)(O)OP(=O)(O)OP(=O)(O)OC[C@H]3O[C@@H](n4cnc5c(=O)[nH]cnc54)[C@H](O)[C@@H]3O)[C@@H](O)[C@H]2O)c(=O)[nH]1` [compound 33, UP3I], the EC50 was found to be 4500 nM on human P2Y2 receptor and 1310 nM on human P2Y6 receptor.
For `Nc1nc2c(ncn2[C@H]2C[C@H](O)[C@@H](COP(=O)(O)OP(=O)(O)OP(=O)(O)OC[C@H]3O[C@@H](n4ccc(=O)[nH]c4=O)[C@H](O)[C@@H]3O)O2)c(=O)[nH]1` [compound 34, UP3dG], the concentration for a half-maximal effect (EC50) on human P2Y2 receptor amounted to 470 nM; at human P2Y4 receptor, 1980 nM; on human P2Y6 receptor, 280 nM.
Turning to `Nc1ccn([C@@H]2O[C@H](COP(=O)(O)OP(=O)(O)OP(=O)(O)OC[C@H]3O[C@@H](n4cnc5c(=O)[nH]cnc54)[C@H](O)[C@@H]3O)[C@@H](O)[C@H]2O)c(=O)n1` [compound 35, CP3I], the EC50 at human P2Y2 receptor and at human P2Y1 receptor was > 10000 nM throughout.
Turning to `Nc1nc2c(ncn2[C@@H]2O[C@H](COP(=O)(O)OP(=O)(O)OP(=O)(O)OC[C@H]3O[C@@H](n4cnc5c(=O)[nH]cnc54)[C@H](O)[C@@H]3O)[C@@H](O)[C@H]2O)c(=O)[nH]1` [compound 37, IP3G], the EC50 was > 10000 nM at human P2Y2 receptor, 6410 nM on human P2Y4 receptor and > 10000 nM at human P2Y6 receptor.
As to `Nc1ncnc2c1ncn2[C@@H]1O[C@H](COP(=O)(O)OP(=O)(O)OP(=O)(O)OP(=O)(O)OC[C@H]2O[C@@H](n3cnc4c(N)ncnc43)[C@H](O)[C@@H]2O)[C@@H](O)[C@H]1O` [compound 39, AP4A], the EC50 at human P2Y2 receptor is 54 nM; at human P2Y1 receptor, 320 nM.
Turning to `Nc1ccn([C@@H]2O[C@H](COP(=O)(O)OP(=O)(O)OP(=O)(O)OP(=O)(O)OC[C@H]3O[C@@H](n4cnc5c(N)ncnc54)[C@H](O)[C@@H]3O)[C@@H](O)[C@H]2O)c(=O)n1` [compound 41, AP4C], the EC50 at human P2Y2 receptor turned out to be 150 nM; on human P2Y1 receptor, 750 nM.
The matching figures for `Nc1ncnc2c1ncn2[C@@H]1O[C@H](COP(=O)(O)OP(=O)(O)OP(=O)(O)OP(=O)(O)OC[C@H]2O[C@@H](n3cnc4c(=O)[nH]cnc43)[C@H](O)[C@@H]2O)[C@@H](O)[C@H]1O` [compound 42, AP4I]: 170 nM and 550 nM.
Consider `O=c1ccn([C@@H]2O[C@H](COP(=O)(O)OP(=O)(O)OP(=O)(O)OP(=O)(O)OC[C@H]3O[C@@H](n4ccc(=O)[nH]c4=O)[C@H](O)[C@@H]3O)[C@@H](O)[C@H]2O)c(=O)[nH]1` [compound 43, UP4U], for which the EC50 at human P2Y4 receptor was 200 nM; on human P2Y6 receptor it was 24800 nM.
Take `Nc1ccn([C@@H]2O[C@H](COP(=O)(O)OP(=O)(O)OP(=O)(O)OP(=O)(O)OC[C@H]3O[C@@H](n4ccc(=O)[nH]c4=O)[C@H](O)[C@@H]3O)[C@@H](O)[C@H]2O)c(=O)n1` [compound 44, UP4C]: the EC50 at human P2Y2 receptor is 460 nM; at human P2Y4 receptor, 850 nM; on human P2Y6 receptor, 12100 nM.
As to `O=c1ccn([C@@H]2O[C@H](COP(=O)(O)OP(=O)(O)OP(=O)(O)OP(=O)(O)OC[C@H]3O[C@@H](n4cnc5c(=O)[nH]cnc54)[C@H](O)[C@@H]3O)[C@@H](O)[C@H]2O)c(=O)[nH]1` [compound 45, UP4I], the EC50 on human P2Y2 receptor was 520 nM; at human P2Y4 receptor, 280 nM; on human P2Y6 receptor it was > 10000 nM.
With `Cc1cn([C@H]2C[C@H](O)[C@@H](COP(=O)(O)OP(=O)(O)OP(=O)(O)OP(=O)(O)OC[C@H]3O[C@@H](n4ccc(=O)[nH]c4=O)[C@H](O)[C@@H]3O)O2)c(=O)[nH]c1=O` [compound 46, UP4T], the EC50 at human P2Y2 receptor came out at 180 nM; on human P2Y4 receptor it was 350 nM.
On to `O=c1ccn([C@@H]2O[C@H](COP(=O)(O)OP(=O)(O)OP(=O)(O)OP(=O)(O)OC[C@H]3O[C@@H](n4ccc(=S)[nH]c4=O)[C@H](O)[C@@H]3O)[C@@H](O)[C@H]2O)c(=O)[nH]1` [compound 47, UP44-thioU], for which the EC50 is 40 nM at human P2Y2 receptor, 170 nM at human P2Y4 receptor and 190000 nM at human P2Y6 receptor.
The corresponding values for `O=c1ccn([C@@H]2O[C@H](COP(=O)(O)OP(=O)(O)OP(=O)(O)OP(=O)(O)OC[C@H]3O[C@@H](n4cnc5c(=O)[nH]cnc54)C[C@@H]3O)[C@@H](O)[C@H]2O)c(=O)[nH]1` [compound 48, UP4dI] are 230 nM, 470 nM and > 10000 nM.
As for `Nc1nc2c(ncn2[C@H]2C[C@H](O)[C@@H](COP(=O)(O)OP(=O)(O)OP(=O)(O)OP(=O)(O)OC[C@H]3O[C@@H](n4ccc(=O)[nH]c4=O)[C@H](O)[C@@H]3O)O2)c(=O)[nH]1` [compound 49, UP4dG], the EC50 stood at 60 nM on human P2Y2 receptor, 140 nM on human P2Y4 receptor and 1680 nM on human P2Y6 receptor.
Consider `Nc1ccn([C@H]2C[C@H](O)[C@@H](COP(=O)(O)OP(=O)(O)OP(=O)(O)OP(=O)(O)OC[C@H]3O[C@@H](n4ccc(=O)[nH]c4=O)[C@H](O)[C@@H]3O)O2)c(=O)n1` [compound 51, UP4dC], for which the figures for the EC50 on human P2Y4 receptor and at human P2Y6 receptor were 1220 nM and 16000 nM, respectively.
Turning to `Nc1ccn([C@@H]2O[C@H](COP(=O)(O)OP(=O)(O)OP(=O)(O)OP(=O)(O)OC[C@H]3O[C@@H](n4ccc(=S)[nH]c4=O)[C@H](O)[C@@H]3O)[C@@H](O)[C@H]2O)c(=O)n1` [compound 55, CP44-thioU], the EC50 at human P2Y2 receptor came to 36 nM; at human P2Y4 receptor, 110 nM; on human P2Y6 receptor, 5220 nM.
For the compound `O=c1[nH]c(=S)ccn1[C@@H]1O[C@H](COP(=O)(O)OP(=O)(O)OP(=O)(O)OP(=O)(O)OC[C@H]2O[C@@H](n3ccc(=S)[nH]c3=O)[C@H](O)[C@@H]2O)[C@@H](O)[C@H]1O` [compound 56, 4-thioUP44-thioU], the figures for the EC50 on human P2Y2 receptor, at human P2Y4 receptor and at human P2Y6 receptor were 82 nM, 90 nM and 6820 nM, respectively.
